In US11452704B2, “Prevention and treatment of muscle wasting with ketone supplementation” (UNIVERSITY OF SOUTH FLORIDA, priority 2017, dated 2022):

Experiments:
[1] = test system: cancer induced tissue wasting (muscle and fat), VM-M3 model of metastatic cancer; experiment: VM-M3 model of metastatic cancer: muscle mass as ratio of total calories consumed (Example 2); format: in vivo, VM/Dk animals; conditions: with standard diet, vs standard diet or ketogenic diet; 21 days post-cancer implantation; FIG. 1
Excerpt: FIG. 1 depicts ratios of muscle mass to amount of calories consumed within a cancer cachexia VM-M3 modeling system, specifically with subjects having been fed standard diet, ketogenic diet, and ketone diester.
Taking a model system of cancer induced tissue wasting (muscle and fat), R,S 1,3 butanediol diacetoacetate+standard diet, ketogenic diet, and standard diet were applied. VM/Dk animals were matched for sex, age, and bodyweight to ensure controlled groups. Animals were implanted with VM-M3 cell in the left flank to create the VM-M3 model of metastatic cancer. Once implanted, primary tumor forms at site of implantation, and then cells metastasize to all major organ systems that results in tissue wasting. Animals were harvested at 21 days post-cancer implantation to evaluate tissue wasting. […] This confirms that R,S 1,3 butanediol diacetoacetate is an anti-catabolic/anti-tissue wasting compound.

[2] = test system: tissue catabolism/atrophy/cachexia that is induced by LPS; experiment: LPS-induced catabolism, single gavage, bodyweight tracked for 2 weeks (Example 4); format: in vivo, VM/Dk mice
Excerpt: FIG. 3A depicts acute percent bodyweight changes that accompany Lipopolysaccharide after treatment with control or ketone supplementation in VM/Dk mice.
FIG. 3B depicts acute bodyweight changes that accompany Lipopolysaccharide after treatment with control or ketone supplementation in VM/Dk mice.
FIG. 3C depicts chronic percent bodyweight changes that accompany Lipopolysaccharide after treatment with control or ketone supplementation in VM/Dk mice.
FIG. 3D depicts the difference in bodyweight with control treatment at baseline versus each day following Lipopolysaccharide treatment.
FIG. 3E depicts the difference in bodyweight with ketone supplement treatment at baseline versus each day following Lipopolysaccharide treatment.
FIGS. 3A-E depict results from Weight matched animals who were administered 10 mg/kg LPS intraperitoneally. After intraperitoneal LPS injection, 4 mL/kg of water (n=4) or R/S 1,3 Butanediol Acetoacetate Diester (Ketone Diester; n=5) were intragastrically gavaged into animals one time. Bodyweight and food intake were tracked for 2 weeks post LPS administration. […] FIG. 3D-E depicts animals administered water gavage post LPS were not able to recovery to baseline bodyweight levels until 11 days post LPS administration.

[3] = test system: anorexia induced by catabolic/atrophy/cachexic stimulus (LPS); experiment: LPS-induced anorexia, food intake (Example 5); format: in vivo; conditions: 10 mg/kg LPS i.p.; one-time dose 4 mL/kg intragastric gavage vs water; FIG. 4A-B
Procedure: FIG. 4A depicts the difference in anorexia symptoms following Lipopolysaccharide administration with treatment with control or ketone supplementation.
FIG. 4B depicts the difference in caloric intake following Lipopolysaccharide administration with treatment with control or ketone supplementation.
FIG. 4A-B depicts weight matched animals who were administered 10 mg/kg LPS intraperitoneally. After intraperitoneal LPS injection, 4 mL/kg of water (n=4) or R/S 1,3 Butanediol Acetoacetate Diester (Ketone Diester; n=5) were intragastrically gavaged into animals. Food Intake was tracted to determine if a one-time does of Ketone Diester was able to reduce anorexia experiences post catabolic/atrophy/cachexic stimulus (10 mg/kg LPS intraperitoneally).

[4] = test system: tissue catabolism/atrophy/cachexia that is induced by LPS; experiment: LPS-induced catabolism, pair fed animals, multiple treatments (Example 6); format: in vivo
Procedure: FIG. 5A depicts the difference in bodyweight following Lipopolysaccharide administration with multiple treatments with control or ketone supplementation with calories controlled across groups.
FIG. 5B depicts the difference in percent bodyweight following Lipopolysaccharide administration with multiple treatments with control or ketone supplementation with calories controlled across groups.
FIG. 5A-B depicts weight matched animals who were administered 10 mg/kg LPS intraperitoneally. After intraperitoneal LPS injection, 4 mL/kg of water (n=4) or R/S 1,3 Butanediol Acetoacetate Diester (Ketone Diester; n=4) were intragastrically gavaged into animals. Animals were pair fed to ensure calories were equivalent between groups to remove influence of caloric intake on tissue catabolism/atrophy/cachexia. […] This effect was retained for a minimum of 2 days following catabolic/atrophy/cachexia stimulus (10 mg/kg LPS intraperitoneal). The ability of Ketone Diester to attenuate catabolism was independent of caloric intake/anorexia induced by LPS.

cancer cachexia (VM-M3) = experiment: Cancer cachexia (VM-M3), skeletal muscle weight as ratio to baseline bodyweight (Example 7); format: in vivo; conditions: ketone diester in standard diet food at 30% by weight; 21 days post cancer injection; vs cancer on standard diet; FIG. 6A-B
Excerpt: FIG. 6A depicts the difference in skeletal muscle weight following cancer cachexia administration (VM-M3) with control or ketone supplementation.
FIG. 6B depicts the difference in skeletal muscle weight following cancer cachexia administration (VM-M3) with control or ketone supplementation.
FIG. 6A-B depict weight matched animals who were split into 3 groups 1) Animals without cancer injected with vehicle on standard diet (Sham; n=11), 2) animals with cancer on standard diet (n=11), and 3) animals with cancer with ketone diester incorporated into the standard diet food at 30% by weight (n=11). Animals bodyweight was measured at baseline. Cancer groups were assessed in a validated model of cancer cachexia. At 21 days post vehicle or cancer injection, tissue were harvest and weighed. Skeletal Muscle weight was set as a ratio to baseline bodyweight to determine the differences in skeletal muscle tissue as compared to set pre-cancer timepoint.

CC(=O)CC(=O)OCCC(C)OC(=O)CC(C)=O (stereo not shown) [Ketone Diester, R/S 1,3 Butanediol Acetoacetate Diester]
percentage of muscle mass as a ratio of total calories consumed (Quad/Carcass/Absolute calories consumed) [1]: substantially higher percentage of muscle mass compared to the amount of calories consumed
bodyweight versus baseline on each day following LPS ([2]; 10 mg/kg LPS i.p., 4 mL/kg gavage, FIG. 3E (water control recovered only at 11 days)): did not significantly reduced in bodyweight
attenuation of tissue catabolism/atrophy/cachexia induced by LPS ([2]; 10 mg/kg LPS i.p., 4 mL/kg intragastric gavage one time, within 1st 24 hour post LPS, FIG. 3A): 46%
attenuation of percentage of tissue catabolism/atrophy/cachexia induced by LPS ([2]; 10 mg/kg LPS i.p., 4 mL/kg intragastric gavage one time, within 1st 24 hours post LPS, FIG. 3B): 48%
chronic tissue catabolism (percent bodyweight change) compared to control ([2]; multi-weeks post-LPS administration, FIG. 3C): significantly attenuated tissue catabolism compared to control
anorexia (food intake, caloric intake) following LPS [3]: significantly reduced the anorexia
tissue catabolism/atrophy/cachexia (bodyweight) induced by LPS, calories controlled ([4]; 10 mg/kg LPS i.p., 4 mL/kg gavage, multiple administrations, FIG. 5A-B): significantly attenuated tissue catabolism/atrophy/cachexia
duration for which the anti-catabolic effect was retained ([4]; following 10 mg/kg LPS intraperitoneal): ≥ 2 days
Gastrocnemius catabolism/atrophy/cachexia (muscle weight / baseline bodyweight) (cancer cachexia (VM-M3)): significantly attenuated
Quadricep catabolism/atrophy/cachexia (muscle weight / baseline bodyweight) (cancer cachexia (VM-M3)): significantly attenuated
